Laboratory results taken from ChEMBL document CHEMBL4732263 (Bioorg Med Chem, 2021).
pIC50: −log10 of the molar value. Converted amounts (≈) assume the structure as drawn.

How the values were obtained:
[1] = mouse, microsomes, 1 h, 1 µM
physchem [2] = conditions: HCl, pH 2, pH 2
physchem [3] = conditions: octanol/water, pH 7.4
physchem [4] = conditions: PBS, pH 6.5, pH 6.5
[5] = human, microsomes, 1 h, 1 µM
in vitro [6] = conditions: human, liver microsomes
in vitro [7] = conditions: human, liver microsomes; remark: listed apart in the source
in vitro [8] = conditions: mouse, liver microsomes
in vitro [9] = conditions: mouse, liver microsomes; remark: listed apart in the source
[10] = Volume of distribution at steady state in Sprague-Dawley rat plasma at 2.6 mg/kg, iv up to 24 hrs by LC-MS analysis; format: ADME, organism-based; conditions: read-out: Vdss
[11] = Plasma clearance in Sprague-Dawley rat at 2.6 mg/kg, iv up to 24 hrs by LC-MS analysis; format: ADME, organism-based
[12] = Clearance in Balb/C mouse blood at 3.5 mg/kg, iv up to 24 hrs by LC-MS analysis; format: ADME, organism-based; conditions: whole blood
[13] = Half life in Sprague-Dawley rat at 2.6 mg/kg, iv up to 24 hrs by LC-MS analysis; format: ADME, organism-based; conditions: in vivo
[14] = AUC(0 to infinity) in Balb/C mouse plasma at 3.5 mg/kg, iv up to 24 hrs by LC-MS analysis; format: ADME, organism-based; parameters: route intravenous, dose 3.5 mg/kg, time <=24
cells = conditions: Homo sapiens, HEK293, 10 min
[15] = Volume of distribution at steady state in Balb/C mouse plasma at 3.5 mg/kg, iv up to 24 hrs by LC-MS analysis; format: ADME, organism-based; conditions: read-out: Vdss
[16] = Drug excretion in Sprague-Dawley rat urine at 2.6 mg/kg, iv up to 24 hrs by LC-MS analysis; format: ADME, organism-based; conditions: read-out: Drug excretion
[17] = Plasma clearance in Balb/C mouse at 3.5 mg/kg, iv up to 24 hrs by LC-MS analysis; format: ADME, organism-based
[18] = mouse, blood, 2 h; at 1 µg/mL
[19] = Volume of distribution at steady state in Sprague-Dawley rat blood at 2.6 mg/kg, iv up to 24 hrs by LC-MS analysis; format: ADME, organism-based; conditions: whole blood, read-out: Vdss
in vitro [20] = conditions: Balb/C, mouse, plasma; at 1 µg/mL
[21] = Apparent half life in Balb/C mouse at 3.5 mg/kg, iv up to 24 hrs by LC-MS analysis; format: ADME, organism-based; conditions: in vivo, read-out: t1/2(app) (converted)
[22] = Volume of distribution at steady state in Balb/C mouse blood at 3.5 mg/kg, iv up to 24 hrs by LC-MS analysis; format: ADME, organism-based; conditions: whole blood, read-out: Vdss
in vivo = conditions: Balb/C, mouse, po
in vitro [23] = conditions: Balb/C, mouse, plasma; at 1 µg/mL; remark: listed apart in the source
[24] = Clearance in Sprague-Dawley rat renal blood at 2.6 mg/kg, iv up to 24 hrs by LC-MS analysis; format: ADME, organism-based; conditions: whole blood
[25] = AUC(0 to infinity) in Sprague-Dawley rat plasma at 2.6 mg/kg, iv up to 24 hrs by LC-MS analysis; format: ADME, organism-based; parameters: route intravenous, dose 2.6 mg/kg, time <=24
[26] = biological target: Sodium channel protein type 5 subunit alpha (Homo sapiens, UniProt Q14524)
[27] = Clearance in Sprague-Dawley rat blood at 2.6 mg/kg, iv up to 24 hrs by LC-MS analysis; format: ADME, organism-based; conditions: whole blood
in vitro [28] = conditions: human, Caco-2
in vitro [29] = conditions: human, Caco-2; remark: listed apart in the source
in vitro [30] = conditions: human, Caco-2; remark: listed apart in the source

Chain of Sodium channel protein type 5 subunit alpha (Q14524 whole entry): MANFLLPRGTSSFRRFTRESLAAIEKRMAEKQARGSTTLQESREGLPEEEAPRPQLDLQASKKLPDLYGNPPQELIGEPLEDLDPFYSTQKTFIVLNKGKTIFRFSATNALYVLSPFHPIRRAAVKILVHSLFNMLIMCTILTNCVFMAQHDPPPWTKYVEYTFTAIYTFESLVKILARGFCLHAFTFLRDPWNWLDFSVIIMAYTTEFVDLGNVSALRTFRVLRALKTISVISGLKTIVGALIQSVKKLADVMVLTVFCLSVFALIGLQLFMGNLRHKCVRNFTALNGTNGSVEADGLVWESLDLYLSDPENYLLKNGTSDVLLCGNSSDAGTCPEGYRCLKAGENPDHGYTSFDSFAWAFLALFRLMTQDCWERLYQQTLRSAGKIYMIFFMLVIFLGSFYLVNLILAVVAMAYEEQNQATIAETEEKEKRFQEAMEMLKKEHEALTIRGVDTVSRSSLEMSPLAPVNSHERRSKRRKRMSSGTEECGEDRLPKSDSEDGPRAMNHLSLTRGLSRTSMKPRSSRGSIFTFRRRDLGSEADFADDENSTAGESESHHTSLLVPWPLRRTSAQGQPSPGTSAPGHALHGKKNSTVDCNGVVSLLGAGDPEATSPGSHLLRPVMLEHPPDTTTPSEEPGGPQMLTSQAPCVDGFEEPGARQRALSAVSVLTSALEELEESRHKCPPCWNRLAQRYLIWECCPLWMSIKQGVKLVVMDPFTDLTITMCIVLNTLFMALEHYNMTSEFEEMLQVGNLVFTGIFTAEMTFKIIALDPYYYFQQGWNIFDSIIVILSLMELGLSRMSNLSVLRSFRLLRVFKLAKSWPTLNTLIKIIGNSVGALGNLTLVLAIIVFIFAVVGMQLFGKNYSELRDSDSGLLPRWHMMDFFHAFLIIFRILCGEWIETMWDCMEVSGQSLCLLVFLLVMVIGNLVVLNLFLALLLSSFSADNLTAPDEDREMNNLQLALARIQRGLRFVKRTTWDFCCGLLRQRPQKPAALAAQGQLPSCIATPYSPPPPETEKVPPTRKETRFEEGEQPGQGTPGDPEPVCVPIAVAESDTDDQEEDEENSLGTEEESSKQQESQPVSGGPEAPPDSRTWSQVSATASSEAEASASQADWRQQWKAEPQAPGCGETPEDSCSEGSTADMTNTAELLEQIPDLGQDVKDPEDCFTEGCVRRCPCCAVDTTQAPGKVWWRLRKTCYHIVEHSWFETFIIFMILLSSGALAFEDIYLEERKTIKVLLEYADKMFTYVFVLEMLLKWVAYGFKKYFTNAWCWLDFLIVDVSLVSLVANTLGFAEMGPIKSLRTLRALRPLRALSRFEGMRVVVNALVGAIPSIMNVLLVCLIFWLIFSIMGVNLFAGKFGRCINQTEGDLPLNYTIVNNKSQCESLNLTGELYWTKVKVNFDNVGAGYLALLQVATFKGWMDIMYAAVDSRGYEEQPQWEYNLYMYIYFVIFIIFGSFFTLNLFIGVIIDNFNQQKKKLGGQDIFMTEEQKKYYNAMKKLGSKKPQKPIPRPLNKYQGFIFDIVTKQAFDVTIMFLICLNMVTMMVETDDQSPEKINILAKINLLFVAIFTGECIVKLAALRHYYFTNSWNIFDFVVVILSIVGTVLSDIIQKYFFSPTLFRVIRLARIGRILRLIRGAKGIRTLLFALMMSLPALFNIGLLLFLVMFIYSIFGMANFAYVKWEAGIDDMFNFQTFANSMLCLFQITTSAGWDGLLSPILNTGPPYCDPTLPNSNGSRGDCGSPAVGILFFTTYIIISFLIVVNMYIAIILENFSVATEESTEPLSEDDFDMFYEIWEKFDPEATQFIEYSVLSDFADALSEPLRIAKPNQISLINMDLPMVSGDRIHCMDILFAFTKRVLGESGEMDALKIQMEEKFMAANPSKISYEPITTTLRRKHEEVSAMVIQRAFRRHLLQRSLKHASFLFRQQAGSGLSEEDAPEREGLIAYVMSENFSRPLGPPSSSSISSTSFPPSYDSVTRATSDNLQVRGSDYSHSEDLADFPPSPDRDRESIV

| SMILES | CL free [1] | solubility kinetic (physchem [2]) | logD (physchem [3]) | solubility kinetic (physchem [4]) | CL free [5] | half-life at 1 h, 1 µM (in vitro [6]) | microsomal CLint at 1 h, 1 µM (in vitro [7]) | microsomal CLint at 1 h, 1 µM (in vitro [8]) | half-life at 1 h, 1 µM (in vitro [9]) | efflux ratio at 2 h, 20 µM (in vitro [28]) | Papp B→A at 2 h, 20 µM (in vitro [29]) | Papp A→B at 2 h, 20 µM (in vitro [30]) | other results |
| --- | --- | --- | --- | --- | --- | --- | --- | --- | --- | --- | --- | --- | --- |
| N=C(N)NC(=O)c1nc(-c2cc3ccccc3s2)c(N)nc1N | 417 µL/min/mg | 50 µg/mL (≈ 153 µM) | 2.9 | 12.5 µg/mL (≈ 38.2 µM) | 41 µL/min/mg | 68 min | 25 µL/min/mg | 252 µL/min/mg | 7 min |  |  |  |  |
| COC(=O)c1ccccc1-c1c2ccc(=N)cc-2oc2cc(N)ccc12 |  |  |  |  |  |  |  |  |  | 8.4 | 12 ×10⁻⁶ cm/s | 1.4 ×10⁻⁶ cm/s |  |
| CC(C)NCC(O)COc1cccc2ccccc12 (stereo not given) [PROPRANOLOL] |  |  |  |  |  |  |  |  |  | 1.1 | 51 ×10⁻⁶ cm/s | 49 ×10⁻⁶ cm/s |  |

Second part, led by results:

| CL free [1] | solubility kinetic (physchem [2]) | logD (physchem [3]) | solubility kinetic (physchem [4]) | CL free [5] | half-life at 1 h, 1 µM (in vitro [6]) | microsomal CLint at 1 h, 1 µM (in vitro [7]) | microsomal CLint at 1 h, 1 µM (in vitro [8]) | half-life at 1 h, 1 µM (in vitro [9]) | efflux ratio at 2 h, 20 µM (in vitro [28]) | Papp B→A at 2 h, 20 µM (in vitro [29]) | Papp A→B at 2 h, 20 µM (in vitro [30]) | SMILES | other results |
| --- | --- | --- | --- | --- | --- | --- | --- | --- | --- | --- | --- | --- | --- |
| 245 µL/min/mg | > 100 µg/mL | 1.4 | 25 µg/mL (≈ 95.7 µM) | 55 µL/min/mg | 35 min | 50 µL/min/mg | 224 µL/min/mg | 7.7 min |  |  |  | N=C(N)NC(=O)c1nc(-c2ccco2)c(N)nc1N |  |
| 167 µL/min/mg |  |  |  | 84 µL/min/mg | 33 min | 53 µL/min/mg | 106 µL/min/mg | 16 min |  |  |  | N=C(N)NC(=O)c1nc(-c2cc3ccccc3o2)c(N)nc1N | Vd [10]: 17.5 L/kg; clearance [11]: 87.7 mL/min/kg; clearance [12]: 60 mL/min/kg; half-life [13]: 294 min; AUC(0-inf) [14]: 1.6 µM·h; pIC50 (cells): 4.66; Vd [15]: 4.1 L/kg; dose excreted at 24 h [16]: 12.5%; clearance [17]: 114 mL/min/kg; Stabilty [18]: Unstable; Vd [19]: 8.9 L/kg; fraction unbound at […], 1 ug/ml (in vitro [20]): 0.06; half-life [21]: 43.8 min; Vd [22]: 2.2 L/kg; bioavailability at 24 h (in vivo): < 5%; metabolised at 4 h, 1 ug/ml (in vitro [23]): < 6%; CL renal at 24 h [24]: 5.6 mL/min/kg; AUC(0-inf) [25]: 1.6 µM·h; pIC50 [26]: 4.66; clearance [27]: 44.7 mL/min/kg |
